US11926594B1, “6′-(3-bromophenyl)-2′-ethoxy-3,4′-bipyridine-3′-carbonitrile as an antioxidant compound” (KING FAISAL UNIVERSITY, priority 2023, dated 2024)

Assay: DPPH radical scavenging antioxidant test
Type: biochemical
Settings: 517 nm; for Inhibition (radical scavenging inhibition): compound 3 μM in ethanol, 0.2 mL DPPH (0.75 mM), 30 minutes in the dark
Procedure: The antioxidant activity of 6′-(3-bromophenyl)-2′-ethoxy-3,4′-bipyridine-3′-carbonitrile was investigated by 2,2-diphenyl-1-picrylhydrazyl (DPPH) in vitro tests that employ vitamin C as the positive control.
The antioxidant properties of the 6′-(3-bromophenyl)-2′-ethoxy-3,4′-bipyridine-3′-carbonitrile compound were studied by adding 0.2 mL DPPH (0.75 mM)) to 6′-(3-bromophenyl)-2′-ethoxy-3,4′-bipyridine-3′-carbonitrile (3 μM) (4) in ethanol. After 30 minutes of incubation in the dark, the absorbance was read against a blank at 517 nm. Ascorbic acid (vitamin C) was used as standard antioxidants (positive control). A blank sample was prepared by 0.2 mL of DPPH in 3 mL ethanol. A negative control sample was run using ethanol instead of the sample. The radical scavenging inhibition was calculated using the following equation: […]

Row | SMILES | antioxidant potential (DPPH) compared to vitamin C (DPPH in vitro test, vitamin C as positive control) | Inhibition (radical scavenging inhibition) [%]
1 | CCOc1nc(-c2cccc(Br)c2)cc(-c2cccnc2)c1C#N [Product 4, 6′-(3-bromophenyl)-2′-ethoxy-3,4′-bipyridine-3′-carbonitrile] | high potential as an antioxidant compared to vitamin C | 48
2 | O=C1O[C@H]([C@@H](O)CO)C(O)=C1O [vit c, Ascorbic acid, reference compound] | – | 74
